In general, Tmax refers to the time from dosing to the highest level.

From US7300664B1, “Vaginally administrable progesterone-containing tablets and method for preparing same” (Ferring B.V., priority 1998, dated 2007) come the findings set out here.

Where two headings read alike, the source gives them in different places.

Data set [1] can be described thus: Single-dose pharmacokinetics of progesterone vaginal tablets in post-menopausal women (Example 4, day 0). The data set is classed as in vivo. To be noted: single vaginal tablet, mean; for Tmax / half-life: female, human, serum; for half-life: read-out: T1/2 (mean elimination half-life) (converted); for Cmax: read-out: Cmax (maximal serum concentration). The procedure: The pharmacokinetics and clinical use of tablets prepared in accordance with the invention were evaluated as follows: 50 healthy, post-menopausal women with intact uteri, 39 of whom had suffered premature menopause and 11 who were truly postmenopausal, all of whom were undergoing hormone replacement therapy (HRT), submitted blood samples for determination of baseline profiles of hormones (progesterone and other hormones) and other biochemicals (bilirubin, cholesterol, etc.). The blood samples were taken at 8 AM on the first day of the evaluation (day 0) in a fasting state, by intravenous indwelling catheter which was introduced into the cubital vein. Non-estrogen primed postmenopausal women were chosen in order to avoid confusion with endogenous progesterone secretion and estrogen influence on vaginal mucosa absorption (Villanueva et al., Fertil. Steril. 35 (1981), 433-437). The women then self-administered the progesterone vaginal tablet using a plastic applicator and lay down for 20 minutes. Repeat blood samples for progesterone concentration were withdrawn 0.5, 1, 2, 4, 6, 8, 10, 12 and 24 hours after the vaginal insertion. Blood was allowed to clot at room temperature for 1 hour, after which the serum was separated by centrifugation and stored at −20° C. until analysis. Of the 50 women who participated in the evaluation, 20 were allocated tablets containing 50 mg progesterone, and the remainder of the participants received tablets containing 100 mg progesterone. […] The mean […] (Tmax), mean elimination half-life (T1/2), maximal serum concentration (Cmax), and AUC (area under the curve, i.e. total amount of plasma progesterone observed) derived from the blood samples taken on day 0 of the evaluation are summarized in Table II.

A short description of data set [2]: Clinical use: twice-daily vaginal tablets, blood samples on days 14 and 30 (Example 4). The data set is classed as in vivo, women. The settings on record: female, human, serum, other: vaginal, fasting morning sample, read-out: Blood Progesterone levels. On the procedure: The pharmacokinetics and clinical use of tablets prepared in accordance with the invention were evaluated as follows: 50 healthy, post-menopausal women with intact uteri, 39 of whom had suffered premature menopause and 11 who were truly postmenopausal, all of whom were undergoing hormone replacement therapy (HRT), submitted blood samples for determination of baseline profiles of hormones (progesterone and other hormones) and other biochemicals (bilirubin, cholesterol, etc.). The blood samples were taken at 8 AM on the first day of the evaluation (day 0) in a fasting state, by intravenous indwelling catheter which was introduced into the cubital vein. Non-estrogen primed postmenopausal women were chosen in order to avoid confusion with endogenous progesterone secretion and estrogen influence on vaginal mucosa absorption (Villanueva et al., Fertil. Steril. 35 (1981), 433-437). To evaluate clinical use of the drug, the women were instructed to insert tablets prepared in accordance with the present invention, containing the same dose as administered on day 0, twice daily starting on day 1, and to […] for 20 minutes after each insertion. On days 14 and 30, blood samples for comparison with the baseline were drawn in the morning while the subjects were in a fasting state. Of the 50 women who participated in the evaluation, 20 were allocated tablets containing 50 mg progesterone, and the remainder of the participants received tablets containing 100 mg progesterone.

Where [3] appears, read: 50 mg progesterone, 20 subjects.
[4] abbreviates: 100 mg progesterone, 30 subjects.

As to `CC(=O)[C@H]1CC[C@H]2[C@@H]3CCC4=CC(=O)CC[C@]4(C)[C@H]3CC[C@]12C` [Progesterone, progesterone], the Tmax in data set [1] (setting [3]) was found to be 6.1 h; in data set [1] (setting [4]) it was 6.4 h. The half-life in data set [1] (setting [3]) was 13.2 h; in data set [1] (setting [4]) it was 13.7 h. Moreover, the “AUC (area under the curve)” value in data set [1] (setting [3]) came to 154.15 nmol/h/L; in data set [1] (100 mg progesterone, 30 subjects, P = 0.001), 247.61 nmol/h/L. For the same compound, the Cmax was determined as 0.0204 µM in data set [1] (setting [3]) and 0.0316 µM in data set [1] (100 mg progesterone, 30 subjects, P = 0.0004). For the same compound, the concentration at 14 day is 0.0175 µM in data set [2] (50 mg twice daily, Day 14, 50 mg tablet twice daily, 20 subjects) and 0.0261 µM in data set [2] (100 mg twice daily, Day 14, 100 mg tablet twice daily, 30 subjects). Besides, the concentration at 30 day in data set [2] (50 mg twice daily, Day 30, 50 mg tablet twice daily, 20 subjects) stood at 0.0174 µM; in data set [2] (100 mg twice daily, Day 30, 100 mg tablet twice daily, 30 subjects), 0.0214 µM.
